Results on four compounds are retold here after publication PMC7835950 (Frontiers in Chemistry, 2021).

The subject of experiment [1] is other enzymes transforming organic acids or structurally related compounds. Also on record: method as in Artiukhov et al., 2020. Conditions: ref Artiukhov et al., 2020; cited from earlier work.
In experiment [2] the target is T1, OGDH (Rattus norvegicus, UniProt Q5XI78).
T1 sequence (Q5XI78 41-1023): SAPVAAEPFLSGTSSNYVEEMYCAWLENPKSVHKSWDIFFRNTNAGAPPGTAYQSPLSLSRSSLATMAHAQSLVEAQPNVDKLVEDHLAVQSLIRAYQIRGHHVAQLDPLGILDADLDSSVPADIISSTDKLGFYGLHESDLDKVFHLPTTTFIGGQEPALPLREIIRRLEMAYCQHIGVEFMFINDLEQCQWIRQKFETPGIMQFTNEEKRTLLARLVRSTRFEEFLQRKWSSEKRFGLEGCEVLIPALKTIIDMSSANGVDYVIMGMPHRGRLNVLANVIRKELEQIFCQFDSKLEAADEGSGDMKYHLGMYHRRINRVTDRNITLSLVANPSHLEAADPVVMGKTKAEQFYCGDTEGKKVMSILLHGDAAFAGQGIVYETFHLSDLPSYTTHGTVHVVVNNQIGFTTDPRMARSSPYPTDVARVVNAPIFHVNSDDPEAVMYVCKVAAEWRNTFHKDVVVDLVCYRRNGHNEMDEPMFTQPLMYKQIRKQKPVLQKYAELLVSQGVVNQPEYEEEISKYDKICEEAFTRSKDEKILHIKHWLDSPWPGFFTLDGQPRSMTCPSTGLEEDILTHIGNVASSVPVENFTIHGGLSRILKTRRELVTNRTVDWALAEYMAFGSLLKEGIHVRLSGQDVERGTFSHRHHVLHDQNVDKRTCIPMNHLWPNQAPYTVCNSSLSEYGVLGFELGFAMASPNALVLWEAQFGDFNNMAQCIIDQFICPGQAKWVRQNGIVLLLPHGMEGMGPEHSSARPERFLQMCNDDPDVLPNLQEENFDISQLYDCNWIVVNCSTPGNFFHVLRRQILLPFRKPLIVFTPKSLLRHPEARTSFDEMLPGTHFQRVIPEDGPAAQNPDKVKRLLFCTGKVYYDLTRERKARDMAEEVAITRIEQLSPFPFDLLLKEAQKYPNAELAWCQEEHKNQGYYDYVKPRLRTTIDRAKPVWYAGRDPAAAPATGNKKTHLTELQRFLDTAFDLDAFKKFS
T1 sequence (Q01205 69-454 partner): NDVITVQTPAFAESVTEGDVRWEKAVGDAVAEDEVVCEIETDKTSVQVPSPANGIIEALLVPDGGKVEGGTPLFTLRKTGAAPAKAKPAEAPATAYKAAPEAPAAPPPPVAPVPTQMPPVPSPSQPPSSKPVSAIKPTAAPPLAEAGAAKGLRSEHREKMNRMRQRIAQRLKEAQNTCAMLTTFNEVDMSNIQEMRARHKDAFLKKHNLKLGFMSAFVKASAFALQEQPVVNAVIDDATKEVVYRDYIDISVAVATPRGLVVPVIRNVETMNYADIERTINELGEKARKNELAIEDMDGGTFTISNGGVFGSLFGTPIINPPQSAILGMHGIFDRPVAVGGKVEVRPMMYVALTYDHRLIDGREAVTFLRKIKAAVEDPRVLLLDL
T1 sequence (Q6P6R2 36-509 partner): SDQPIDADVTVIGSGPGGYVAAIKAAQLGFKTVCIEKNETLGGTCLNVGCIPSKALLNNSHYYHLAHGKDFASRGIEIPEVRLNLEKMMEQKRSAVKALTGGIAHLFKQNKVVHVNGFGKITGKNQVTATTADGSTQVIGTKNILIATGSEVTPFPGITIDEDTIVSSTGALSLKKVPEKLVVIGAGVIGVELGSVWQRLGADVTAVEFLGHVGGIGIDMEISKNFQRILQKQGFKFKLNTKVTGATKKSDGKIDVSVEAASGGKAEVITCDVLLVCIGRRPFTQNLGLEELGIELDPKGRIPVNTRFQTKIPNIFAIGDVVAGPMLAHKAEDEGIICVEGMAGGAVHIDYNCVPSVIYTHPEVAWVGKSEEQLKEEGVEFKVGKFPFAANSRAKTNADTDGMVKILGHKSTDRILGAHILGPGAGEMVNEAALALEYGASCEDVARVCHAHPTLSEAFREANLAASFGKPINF
Briefly: OGDH reaction (OG saturation) catalyzed by the enzyme preparation from rat liver. The format is biochemical. Also on record: the tissue fractions with the complexes enriched to a degree allowing for a robust detection of the enzymatic activities, have been used; from tissue. As for the experimental part: (§1) Reactions were started by addition of the enzyme preparations to the assay media. The amount of enzyme preparations (0.074 mg protein for the preparation from liver and 0.023 mg protein for the preparation from heart) were chosen to induce the lowest reliably measured reaction rate (ΔA340 = 0.001/min) at 0.01 mM OA without the phosphonates.
(§2) Reaction rates were calculated from linear parts of the product accumulation curves (up to 10 min, dependent on the reaction rate), excluding the initial region, where mixing the reagents and solubilization of the preparation affected the optical density.
(§3) The former equation describes one type of the active sites. […] The assumption was based on the presence of the two enzymes, OGDH and OADH, in the employed preparations.
(§4) The Km and Amax values obtained in independent experiments using the non-linear and linear regression analyses of the experimental data, were averaged and presented as Mean ± Standard Error of Mean.
(§5) The values of Ki were determined as the ratio of the corresponding Intercepts to the Slopes. In the two-site model, the Ki(1) and Ki(2) were calculated separately from the linear approximations of Km,1eff/Amax,1eff vs. [I] and Km,2eff/Amax,2eff vs. [I] dependences, respectively. […] The Ki values obtained from the non-linear and linear regression analyses of the experimental data were averaged and presented as Mean ± Standard Error of Mean.

The target of experiment [3] is T1, OGDH. Briefly: OGDH reaction (OG saturation) catalyzed by the enzyme preparation from rat heart. Format: biochemical. Details: the tissue fractions with the complexes enriched to a degree allowing for a robust detection of the enzymatic activities, have been used; from tissue; host or cells: rat heart. As for the experimental part: as §1, §2, §3, §4, §5
The next experiment has as its system recombinant human OADH. Also on record: method as in Nemeria et al., 2017, 2018. Conditions: ref Nemeria et al., 2017, 2018, cited from earlier work.
Where [4] appears, read: Eadie-Hofstee, read-out: Ki, EH.
Where [5] appears, read: Lineweaver-Burk, read-out: Ki, LB.
Setting [6] is: Michaelis-Menten approximation, read-out: Ki, MM.
The mark [7] stands for this setting: average of MM, LB, EH, read-out: Ki, Average.
Setting [8] is: OGDH reaction, heart, Eadie-Hofstee, read-out: Ki, EH.
Setting [9] is: OGDH reaction, heart, Lineweaver-Burk, read-out: Ki, LB.
The mark [10] stands for this setting: OGDH reaction, heart, Michaelis-Menten approximation, read-out: Ki, MM.
[11] abbreviates: OGDH reaction, heart, average of MM, LB, EH, read-out: Ki, Average.
Setting [12] is: [I] 10 µM, OGDH reaction, heart.
[13] abbreviates: [I] 50 µM, OGDH reaction, heart.
The mark [14] stands for this setting: [I] 200 µM, OGDH reaction, heart.
[15] abbreviates: [I] 1000 µM, OGDH reaction, heart.

Broadly, the Ki is the equilibrium dissociation constant of an inhibitor or competing ligand from its target. As for `O=C(O)CCCCC(=O)P(=O)(O)O` [AP, adipoyl phosphonate], in experiment [1], the “interaction with other enzymes” value is given as “no significant interaction”. Moreover, the Ki came to 326 ± 19 µM on OGDH [2] (setting [4]); 361 ± 36 µM at OGDH [2] (setting [5]); 405 ± 11 µM on OGDH [2] (setting [6]); 364 ± 23 µM on OGDH [2] (setting [7]); 1760 ± 77 µM at OGDH [3] (setting [8]); 2140 ± 517 µM at OGDH [3] (setting [9]). Also, the Ki worked out at 2490 ± 341 µM on OGDH [3] (setting [10]) and 2130 ± 211 µM at OGDH [3] (setting [11]). Also, the Amax at OGDH [2] ([I] 0.5 µM) is listed as 0.040 ± 0.001 µmol/min per mg of protein; at OGDH [2] ([I] 2 µM) it was 0.042 ± 0.001 µmol/min per mg of protein; at OGDH [2] ([I] 10 µM), 0.042 ± 0.001 µmol/min per mg of protein; at OGDH [2] ([I] 50 µM), 0.042 ± 0.001 µmol/min per mg of protein; on OGDH [2] ([I] 200 µM), 0.045 ± 0.001 µmol/min per mg of protein; on OGDH [2] ([I] 1000 µM), 0.049 ± 0.001 µmol/min per mg of protein. The Amax is 0.039 ± 0.004 µmol/min per mg of protein at OGDH [2] ([I] 5000 µM); 0.70 ± 0.02 µmol/min per mg of protein at OGDH [3] ([I] 0.5 µM, OGDH reaction, heart); 0.72 ± 0.01 µmol/min per mg of protein on OGDH [3] ([I] 2 µM, OGDH reaction, heart); 0.62 ± 0.01 µmol/min per mg of protein on OGDH [3] (setting [12]); 0.67 ± 0.01 µmol/min per mg of protein on OGDH [3] (setting [13]); 0.70 ± 0.02 µmol/min per mg of protein on OGDH [3] (setting [14]). Moreover, the Amax on OGDH [3] (setting [15]) is reported as 0.63 ± 0.03 µmol/min per mg of protein; at OGDH [3] ([I] 5000 µM, OGDH reaction, heart) it was 0.61 ± 0.04 µmol/min per mg of protein.
Broadly, the Km is the substrate concentration at which the rate is half of its maximum. Regarding `O=C(O)CCCC(=O)C(=O)O` [OA, 2-oxoadipate], in the experiment with recombinant human OADH, the “kcat OA of recombinant OADH complex” value is 6.0 s⁻¹. The Michaelis-Menten constant (Km) with recombinant human OADH (read-out: Km OA of recombinant human OADH) is 15 µM.
Consider `O=C(O)CCCC(=O)P(=O)(O)O` [GP, glutaryl phosphonate], for which the inhibitory constant (Ki) at OGDH [2] (setting [4]) was found to be 6.2 ± 0.1 µM; on OGDH [2] (setting [5]), 5.6 ± 0.1 µM; at OGDH [2] (setting [6]), 7.3 ± 0.4 µM; at OGDH [2] (setting [7]), 6.3 ± 0.5 µM; on OGDH [3] (setting [8]), 49 ± 8 µM; on OGDH [3] (setting [9]) it was 12 ± 1 µM. Also, the inhibition constant (Ki) at OGDH [3] (setting [10]) was 39 ± 2 µM; on OGDH [3] (setting [11]) it was 33 ± 11 µM. For the same compound, the Amax is 0.045 ± 0.001 µmol/min per mg of protein at OGDH [2] ([I] 2 µM); 0.045 ± 0.001 µmol/min per mg of protein on OGDH [2] ([I] 10 µM); 0.044 ± 0.001 µmol/min per mg of protein at OGDH [2] ([I] 50 µM); 0.066 ± 0.011 µmol/min per mg of protein at OGDH [2] ([I] 200 µM); 0.67 ± 0.02 µmol/min per mg of protein on OGDH [3] ([I] 2 µM, OGDH reaction, heart); 0.76 ± 0.02 µmol/min per mg of protein at OGDH [3] (setting [12]). The Amax at OGDH [3] (setting [13]) is listed as 0.79 ± 0.03 µmol/min per mg of protein; at OGDH [3] (setting [14]), 0.86 ± 0.05 µmol/min per mg of protein.
As for `O=C(O)CCC(=O)P(=O)(O)O` [SP, succinyl phosphonate], the “interaction with other enzymes” value in experiment [1] was “no significant interaction”. Besides, the Ki on OGDH [2] (Ki, Average, average of MM, LB, EH) was 7.4 ± 1.4 µM; at OGDH [2] (Ki, EH, Eadie-Hofstee), 7.7 ± 0.1 µM; on OGDH [2] (Ki, LB, Lineweaver-Burk), 4.9 ± 0.1 µM; at OGDH [2] (Ki, MM, Michaelis-Menten approximation) it was 9.6 ± 0.2 µM; at OGDH [3] (Ki, Average, OGDH reaction, heart, average of MM, LB, EH) it was 16 ± 2 µM; at OGDH [3] (Ki, LB, OGDH reaction, heart, Lineweaver-Burk) it was 13 ± 2 µM. The Ki on OGDH [3] (Ki, MM, OGDH reaction, heart, Michaelis-Menten approximation) was 20 ± 1 µM; on OGDH [3] (setting [8]), 15 ± 1 µM; at OGDH [3] (rounded from Table 2 (heart and liver preparations), read-out: Ki as OGDH inhibitor (order of magnitude)), 10 µM. Besides, the Amax is listed as 0.043 ± 0.001 µmol/min per mg of protein on OGDH [2] ([I] 10 µM); 0.041 ± 0.001 µmol/min per mg of protein at OGDH [2] ([I] 50 µM); 0.038 ± 0.002 µmol/min per mg of protein on OGDH [2] ([I] 200 µM); 0.019 ± 0.002 µmol/min per mg of protein on OGDH [2] ([I] 1000 µM); 0.72 ± 0.01 µmol/min per mg of protein on OGDH [3] (setting [12]); 0.71 ± 0.02 µmol/min per mg of protein on OGDH [3] (setting [13]). Further, the Amax is reported as 0.45 ± 0.11 µmol/min per mg of protein at OGDH [3] (setting [14]) and 0.54 ± 0.07 µmol/min per mg of protein at OGDH [3] (setting [15]).
